US20160122312A1, “ANTI-VIRAL COMPOUNDS, PHARMACEUTICAL COMPOSITIONS AND METHODS OF USE THEREOF” (KINETA, INC., priority 2013, published 2016)
pIC50: −log10 of the molar value.

Assays:
[1] = tested on: influenza virus A/Udorn/72 H3N2 strain; assay: influenza focus-forming assay in 293 cells; assay type: cell-based
DNV type 2 strain = assay: DNV focus-forming assay in Huh7 cells; assay type: cell-based, Dengue virus
Murine EMCV = assay: EMCV in vitro antiviral assay, Huh7 cell viability by MTS; assay type: cell-based, encephalomyocarditis virus; conditions: Huh7 cells; for Cell viability post-infection: 5 hours before EMCV, MTS 18 hours after infection
Description: In an encephalomyocarditis virus (EMCV) in vitro antiviral assay, Huh7 cells were grown under normal growth conditions and treated with the indicated amount of KIN101 in media containing 0.5% DMSO. The cells were grown in the presence of compound for 5 hours and then infected with 250 pfu Murine EMCV obtained from ATCC #VR-129B. Infected cells were grown for an additional 18 hours and then cell viability was measured using an MTS assay. Negative control cells were treated with buffer alone containing 0.5% DMSO. Interferon treatment was used as a positive control for virus inhibition and was added similar to compound treatments at a final concentration of 10 IU/mL Interferon-α: Intron A, from Schering-Plough. Cell viability was measured using an MTS assay, CellTiter 96® AQueous One Solution Cell Proliferation Assay (MTS), from Promega #G3580. […]

RSV A2 Long strain = assay: RSV antiviral assay in HeLa cells; assay type: cell-based, respiratory syncytial virus; conditions: 48 hours post infection, FIG. 2B
[2] = tested on: interferon-stimulated gene (ISG) induction; assay: preliminary screen of natural product library for ISG induction; assay type: cell-based; conditions: preliminary screen of NCI natural product library
Excerpt: The compounds disclosed herein are described as isoflavone compounds. Isoflavones are best known as natural products isolated from the Leguminosae (legume) family and are usually polyhydroxylated and pharmacologically active as phytoestrogenics and antioxidants. The most recognizable member of this class is genistein, which has been reported to have anticancer activities and to induce thymic and immune changes in mammals (Banerjee, S., et al. (2008) Multi-targeted therapy of cancer by genistein, Cancer Lett 269, 226-242).

Structure (SMILES): CS(=O)(=O)Oc1ccc2c(=O)c(-c3ccc(Br)cc3)coc2c1 [KIN101]
- viral infection of 293 cells (decrease in foci, dose dependence) ([1]; FIGS. 3A, 3B): dose-dependent decreases in viral infection
- pIC50 ([1]; HEK293, 24 h, read-out: Flu IC50): 5.70
- pIC50 (DNV type 2 strain; Dengue virus, Huh-7, Huh7 cells, treatment after infection, 48 hours replication): < 5.30
- viral infection of Huh7 cells (decrease in foci, dose dependence) (DNV type 2 strain; FIG. 4B): dose-dependent decreases in viral infection
- viral protein in cells infected with DNV (DNV type 2 strain; increasing amounts of compound, FIG. 4A): dose-dependent decrease in viral protein
- Cell viability post-infection (Murine EMCV; 5 units added): ~0.7
- Cell viability post-infection (Murine EMCV; 10 units added): ~1.2
- Cell viability post-infection (Murine EMCV; 20 units added): ~1.45
- cell viability following infection with EMCV (in words) (Murine EMCV): protective of cell viability
- RSV viral RNA (RSV A2 Long strain): decreased RSV viral RNA

Structure (SMILES): O=c1c(-c2ccc(O)cc2)coc2cc(O)cc(O)c12 [genistein]
- interferon-stimulated gene (ISG) induction, screen outcome [2]: validated hit
